How the values were obtained:
TP53 signaling = assay: Nutlin-3a treatment after bleomycin injury in Sftpc-CreER; R26R-tdTomato mice, AGER immunostaining; details: uninjured (PBS) mice that received Nutlin-3a; 20 mg kg-1 d-1 intraperitoneal for ten days
Runx1 = biological target: T1, Runx1 (Mus musculus, UniProt Q03347); assay: Lipofibroblast culture with TGF-B induced myofibrogenesis, Runx1 pharmacologic inhibition; type: cell-based; details: lipofibroblasts cultured in the presence of Ro 5-3335 and TGF-B for 48 hours
T1 construct: Lipofibroblasts were cultured in the presence of Ro 5-3335 and TGF-B for 48 hours; endogenous in cells; host or cells: primary lung lipofibroblasts (mouse, inferred) in culture
T1 sequence (Q03347 whole entry): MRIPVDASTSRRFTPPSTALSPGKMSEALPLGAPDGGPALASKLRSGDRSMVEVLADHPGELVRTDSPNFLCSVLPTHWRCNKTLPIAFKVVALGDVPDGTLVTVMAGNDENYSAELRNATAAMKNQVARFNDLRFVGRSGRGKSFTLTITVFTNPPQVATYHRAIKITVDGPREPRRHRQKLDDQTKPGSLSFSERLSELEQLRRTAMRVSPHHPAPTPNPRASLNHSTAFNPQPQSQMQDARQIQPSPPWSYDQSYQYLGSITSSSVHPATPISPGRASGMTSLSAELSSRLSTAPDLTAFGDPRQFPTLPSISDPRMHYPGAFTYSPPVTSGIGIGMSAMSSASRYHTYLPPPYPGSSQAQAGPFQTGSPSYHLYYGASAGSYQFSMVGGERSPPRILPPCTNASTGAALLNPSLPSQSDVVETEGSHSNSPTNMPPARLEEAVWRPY

COc1ccc(C2=N[C@@H](c3ccc(Cl)cc3)[C@@H](c3ccc(Cl)cc3)N2C(=O)N2CCNC(=O)C2)c(OC(C)C)c1 [Nutlin-3a]
AGER+Sftpc-tdt+ cells in uninjured lungs (TP53 signaling): no AGER+Sftpc-tdt+ cells

O=C1CN=C(c2ccc[nH]2)c2cc(Cl)ccc2N1 [Ro 5-3335]
PDGFRA expression and cell shape of lipofibroblasts (Runx1): maintained PDGFRA expression and their stellate shape
aSMA expression and myofibrotic conversion (Runx1): virtually no aSMA expression and myofibrotic conversion

Source: patent US12613236B2, “Lung fibrosis model and methods of using the same” (DUKE UNIVERSITY, priority 2019, dated 2026)
